Drawing on ChEMBL document CHEMBL5465560, “Selectivity Literature for EUbOPEN Chemogenomic Library” (2024), this text covers IC50, % of control and % of inhibition for ten compounds.

The structures appear in SMILES notation.

The target in test [1] is Poly [ADP-ribose] polymerase 1 (Homo sapiens, UniProt P09874). As to the kind of experiment: Selectivity interaction (Enzymatic assay (Reaction Biology)) EUB0001632a PARP1.
For test [2], the target named is P2X purinoceptor 1 (Homo sapiens) (UniProt P51575). As to the kind of experiment: Selectivity interaction (Eurofins CEREP Diversity Profile (receptors and ion channels)) EUB0000279b P2RX1. The conditions noted are these: at 10 µM.
P2X purinoceptor 1 (Homo sapiens), sequence (P51575 whole entry): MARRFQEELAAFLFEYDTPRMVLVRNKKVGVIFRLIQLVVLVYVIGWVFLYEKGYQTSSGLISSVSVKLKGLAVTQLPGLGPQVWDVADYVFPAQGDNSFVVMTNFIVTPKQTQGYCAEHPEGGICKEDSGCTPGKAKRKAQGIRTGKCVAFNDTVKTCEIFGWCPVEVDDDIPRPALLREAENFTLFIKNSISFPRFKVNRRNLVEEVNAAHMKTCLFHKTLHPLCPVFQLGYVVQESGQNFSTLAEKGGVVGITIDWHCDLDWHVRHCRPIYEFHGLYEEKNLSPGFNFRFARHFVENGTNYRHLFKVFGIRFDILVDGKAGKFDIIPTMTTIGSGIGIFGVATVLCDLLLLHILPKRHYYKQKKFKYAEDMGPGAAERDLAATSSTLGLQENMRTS
Test [3] concerns the target Cyclin-dependent kinase 17 (Homo sapiens) (UniProt Q00537). As to the kind of experiment: Selectivity interaction (KinomeScan (DiscoverX)) EUB0000695a CDK17. The conditions noted are these: at 100 nM.
The target of test [4] is MAP kinase-interacting serine/threonine-protein kinase 1 (Homo sapiens) (UniProt Q9BUB5). The test can be described thus: Selectivity interaction (KinomeScan (DiscoverX)) EUB0000666a MKNK1. The settings on record: at 10 µM.
MAP kinase-interacting serine/threonine-protein kinase 1 (Homo sapiens), sequence (Q9BUB5 whole entry, looked up): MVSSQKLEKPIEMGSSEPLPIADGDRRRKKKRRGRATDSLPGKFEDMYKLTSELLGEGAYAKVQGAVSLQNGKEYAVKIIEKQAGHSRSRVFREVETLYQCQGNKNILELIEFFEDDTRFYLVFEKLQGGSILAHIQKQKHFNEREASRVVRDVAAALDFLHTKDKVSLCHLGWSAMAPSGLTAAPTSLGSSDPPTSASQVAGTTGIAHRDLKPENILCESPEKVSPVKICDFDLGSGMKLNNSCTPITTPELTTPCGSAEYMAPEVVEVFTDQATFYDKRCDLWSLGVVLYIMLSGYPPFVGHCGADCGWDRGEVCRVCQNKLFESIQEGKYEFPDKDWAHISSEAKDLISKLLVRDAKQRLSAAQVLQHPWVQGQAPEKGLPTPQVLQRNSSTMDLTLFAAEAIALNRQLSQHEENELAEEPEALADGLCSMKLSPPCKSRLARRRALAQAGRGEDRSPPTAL
Test [5] has as its target Homeodomain-interacting protein kinase 2 (Homo sapiens, UniProt Q9H2X6). As to the kind of experiment: Selectivity interaction (KinomeScan (DiscoverX)) EUB0000607a HIPK2. The conditions noted are these: at 10 µM.
Test [6] concerns the target Microtubule-associated serine/threonine-protein kinase 1 (Homo sapiens) (UniProt Q9Y2H9). The settings on record: at 10 µM.
In test [7] the target is Tyrosine-protein kinase HCK (Homo sapiens) (UniProt P08631). The test can be described thus: Selectivity interaction (Kinase screening (Nanosyn)) EUB0000604a HCK.
Test [8] deals with T1, Serine/threonine-protein kinase BRSK1 (Homo sapiens) (UniProt Q8TDC3).
T1 sequence (whole entry): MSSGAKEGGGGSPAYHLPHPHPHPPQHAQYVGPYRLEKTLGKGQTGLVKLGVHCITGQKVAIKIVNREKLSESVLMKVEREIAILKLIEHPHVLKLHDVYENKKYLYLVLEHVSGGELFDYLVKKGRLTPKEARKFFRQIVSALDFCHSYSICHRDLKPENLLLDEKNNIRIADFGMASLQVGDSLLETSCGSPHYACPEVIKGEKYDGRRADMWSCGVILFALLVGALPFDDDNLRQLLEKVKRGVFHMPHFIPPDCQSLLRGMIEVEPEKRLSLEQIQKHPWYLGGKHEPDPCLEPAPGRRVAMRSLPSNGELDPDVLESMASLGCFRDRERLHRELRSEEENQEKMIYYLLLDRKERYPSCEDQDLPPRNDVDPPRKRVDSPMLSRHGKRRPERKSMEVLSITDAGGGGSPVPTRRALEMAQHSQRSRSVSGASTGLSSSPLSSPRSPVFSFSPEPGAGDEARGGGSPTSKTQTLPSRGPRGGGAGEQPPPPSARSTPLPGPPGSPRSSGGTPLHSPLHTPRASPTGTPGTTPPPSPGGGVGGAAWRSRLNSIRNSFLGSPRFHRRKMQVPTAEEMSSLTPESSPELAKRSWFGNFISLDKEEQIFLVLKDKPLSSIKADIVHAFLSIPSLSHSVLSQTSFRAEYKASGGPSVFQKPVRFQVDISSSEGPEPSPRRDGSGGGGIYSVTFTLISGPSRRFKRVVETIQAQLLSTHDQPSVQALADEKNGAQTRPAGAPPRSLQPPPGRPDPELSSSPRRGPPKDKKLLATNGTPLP
The test can be described thus: Selectivity interaction (Kinase screening (Nanosyn)) EUB0000604a BRSK1.

Test [9] concerns the target Serine/threonine-protein kinase haspin (Homo sapiens, UniProt Q8TF76).
Test [10] addresses High affinity nerve growth factor receptor (Homo sapiens, UniProt P04629). As to the kind of experiment: Selectivity interaction (KinomeScan (DiscoverX)) EUB0001049a NTRK1. The settings on record: at 1 µM.
In test [11] the target is Serine/threonine-protein kinase PAK 6 (Homo sapiens) (UniProt Q9NQU5). The test can be described thus: Selectivity interaction (KinomeScan (DiscoverX)) EUB0000092b PAK6. The conditions noted are these: at 10 µM.
Serine/threonine-protein kinase PAK 6 (Homo sapiens), sequence (Q9NQU5 whole entry, looked up): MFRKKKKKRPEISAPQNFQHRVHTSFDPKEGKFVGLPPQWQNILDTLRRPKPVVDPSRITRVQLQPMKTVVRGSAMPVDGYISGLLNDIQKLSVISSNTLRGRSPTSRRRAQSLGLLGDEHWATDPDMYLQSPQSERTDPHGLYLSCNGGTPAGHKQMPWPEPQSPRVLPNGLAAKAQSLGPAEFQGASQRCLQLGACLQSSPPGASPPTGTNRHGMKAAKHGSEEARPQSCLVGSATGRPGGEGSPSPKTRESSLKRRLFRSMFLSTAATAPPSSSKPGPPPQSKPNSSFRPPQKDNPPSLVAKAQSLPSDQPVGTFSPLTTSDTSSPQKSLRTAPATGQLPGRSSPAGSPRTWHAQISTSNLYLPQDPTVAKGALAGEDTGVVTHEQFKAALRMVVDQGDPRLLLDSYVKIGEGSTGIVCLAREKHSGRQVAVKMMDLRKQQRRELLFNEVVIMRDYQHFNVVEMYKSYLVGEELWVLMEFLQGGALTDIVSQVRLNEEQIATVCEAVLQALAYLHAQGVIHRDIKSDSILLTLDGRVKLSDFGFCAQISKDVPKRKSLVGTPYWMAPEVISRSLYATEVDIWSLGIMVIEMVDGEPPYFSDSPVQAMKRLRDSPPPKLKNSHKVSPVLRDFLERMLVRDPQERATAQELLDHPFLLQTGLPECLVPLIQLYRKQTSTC
The target in test [12] is T2, Serine/threonine-protein kinase TAO3 (Homo sapiens) (UniProt Q9H2K8).
T2 sequence (whole entry): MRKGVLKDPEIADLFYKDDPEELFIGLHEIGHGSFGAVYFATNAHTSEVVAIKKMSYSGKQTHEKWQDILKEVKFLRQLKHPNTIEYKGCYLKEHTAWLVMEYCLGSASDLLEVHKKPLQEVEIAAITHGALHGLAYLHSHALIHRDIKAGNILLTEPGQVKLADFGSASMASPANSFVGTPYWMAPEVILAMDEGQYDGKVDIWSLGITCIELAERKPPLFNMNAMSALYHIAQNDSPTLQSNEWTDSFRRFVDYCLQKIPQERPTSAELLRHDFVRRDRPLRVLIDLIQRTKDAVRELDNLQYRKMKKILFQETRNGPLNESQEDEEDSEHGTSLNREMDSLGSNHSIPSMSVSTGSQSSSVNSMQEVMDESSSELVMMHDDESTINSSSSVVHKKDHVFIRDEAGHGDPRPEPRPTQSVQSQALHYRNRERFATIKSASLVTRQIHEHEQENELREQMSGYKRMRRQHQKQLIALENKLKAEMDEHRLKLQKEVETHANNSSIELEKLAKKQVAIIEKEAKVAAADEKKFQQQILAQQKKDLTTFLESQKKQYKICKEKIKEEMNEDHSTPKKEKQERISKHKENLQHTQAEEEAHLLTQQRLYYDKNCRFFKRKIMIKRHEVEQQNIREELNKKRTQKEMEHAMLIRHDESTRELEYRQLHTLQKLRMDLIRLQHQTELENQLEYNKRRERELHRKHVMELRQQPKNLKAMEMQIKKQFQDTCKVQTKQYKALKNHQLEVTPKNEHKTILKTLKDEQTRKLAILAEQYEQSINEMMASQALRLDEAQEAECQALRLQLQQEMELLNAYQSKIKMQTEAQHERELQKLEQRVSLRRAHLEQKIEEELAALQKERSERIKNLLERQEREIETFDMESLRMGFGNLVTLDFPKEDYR
As to the kind of experiment: Selectivity interaction (KinomeScan (DiscoverX)) EUB0000092b TAOK3. The settings on record: at 10 µM.

Poly [ADP-ribose] polymerase 1, sequence (P09874 whole entry): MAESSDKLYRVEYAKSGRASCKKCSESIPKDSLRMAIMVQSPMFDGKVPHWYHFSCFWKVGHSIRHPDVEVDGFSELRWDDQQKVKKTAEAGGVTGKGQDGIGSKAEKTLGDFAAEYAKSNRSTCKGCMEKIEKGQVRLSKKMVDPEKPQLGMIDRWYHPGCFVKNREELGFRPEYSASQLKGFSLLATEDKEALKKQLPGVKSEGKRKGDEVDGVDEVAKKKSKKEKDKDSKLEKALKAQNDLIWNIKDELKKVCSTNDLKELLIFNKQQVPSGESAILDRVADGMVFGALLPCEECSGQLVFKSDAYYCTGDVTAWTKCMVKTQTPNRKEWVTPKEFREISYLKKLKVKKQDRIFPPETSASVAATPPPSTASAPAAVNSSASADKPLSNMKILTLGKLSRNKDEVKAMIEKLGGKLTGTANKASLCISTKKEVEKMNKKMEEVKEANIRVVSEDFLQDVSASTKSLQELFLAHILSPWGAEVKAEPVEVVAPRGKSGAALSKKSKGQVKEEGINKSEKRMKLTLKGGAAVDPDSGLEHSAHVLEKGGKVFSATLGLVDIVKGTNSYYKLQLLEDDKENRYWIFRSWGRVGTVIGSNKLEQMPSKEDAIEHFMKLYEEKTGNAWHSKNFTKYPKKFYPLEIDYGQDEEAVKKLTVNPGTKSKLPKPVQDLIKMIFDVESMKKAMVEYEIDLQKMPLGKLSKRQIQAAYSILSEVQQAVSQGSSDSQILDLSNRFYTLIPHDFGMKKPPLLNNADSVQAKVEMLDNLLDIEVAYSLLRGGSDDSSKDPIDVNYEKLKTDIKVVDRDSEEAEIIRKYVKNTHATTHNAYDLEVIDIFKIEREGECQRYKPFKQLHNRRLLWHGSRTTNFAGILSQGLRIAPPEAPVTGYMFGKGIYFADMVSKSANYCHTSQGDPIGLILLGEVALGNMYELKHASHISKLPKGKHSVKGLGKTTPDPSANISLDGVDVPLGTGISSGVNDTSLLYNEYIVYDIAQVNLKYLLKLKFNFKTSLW
Serine/threonine-protein kinase haspin, sequence (Q8TF76 whole entry): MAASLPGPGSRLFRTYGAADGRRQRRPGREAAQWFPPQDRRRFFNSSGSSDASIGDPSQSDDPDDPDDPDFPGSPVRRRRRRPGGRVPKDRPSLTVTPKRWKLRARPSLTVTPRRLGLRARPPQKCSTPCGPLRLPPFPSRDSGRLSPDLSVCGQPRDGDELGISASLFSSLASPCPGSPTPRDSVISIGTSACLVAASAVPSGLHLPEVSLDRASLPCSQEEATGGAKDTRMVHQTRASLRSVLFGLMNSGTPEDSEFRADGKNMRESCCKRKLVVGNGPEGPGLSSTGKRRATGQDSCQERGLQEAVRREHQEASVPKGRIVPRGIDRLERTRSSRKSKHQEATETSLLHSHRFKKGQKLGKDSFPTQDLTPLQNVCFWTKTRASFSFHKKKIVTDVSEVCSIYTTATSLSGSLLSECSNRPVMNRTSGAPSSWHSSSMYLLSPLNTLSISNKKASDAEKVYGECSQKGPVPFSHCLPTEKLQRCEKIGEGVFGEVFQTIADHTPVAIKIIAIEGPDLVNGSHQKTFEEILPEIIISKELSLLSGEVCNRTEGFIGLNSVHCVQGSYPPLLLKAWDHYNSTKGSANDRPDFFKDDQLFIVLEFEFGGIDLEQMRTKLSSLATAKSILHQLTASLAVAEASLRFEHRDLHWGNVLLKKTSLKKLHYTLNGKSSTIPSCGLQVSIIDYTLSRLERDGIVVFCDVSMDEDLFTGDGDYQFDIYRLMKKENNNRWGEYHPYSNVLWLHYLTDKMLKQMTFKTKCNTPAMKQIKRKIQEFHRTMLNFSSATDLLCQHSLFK
Microtubule-associated serine/threonine-protein kinase 1 (Homo sapiens), sequence (Q9Y2H9 whole entry, looked up): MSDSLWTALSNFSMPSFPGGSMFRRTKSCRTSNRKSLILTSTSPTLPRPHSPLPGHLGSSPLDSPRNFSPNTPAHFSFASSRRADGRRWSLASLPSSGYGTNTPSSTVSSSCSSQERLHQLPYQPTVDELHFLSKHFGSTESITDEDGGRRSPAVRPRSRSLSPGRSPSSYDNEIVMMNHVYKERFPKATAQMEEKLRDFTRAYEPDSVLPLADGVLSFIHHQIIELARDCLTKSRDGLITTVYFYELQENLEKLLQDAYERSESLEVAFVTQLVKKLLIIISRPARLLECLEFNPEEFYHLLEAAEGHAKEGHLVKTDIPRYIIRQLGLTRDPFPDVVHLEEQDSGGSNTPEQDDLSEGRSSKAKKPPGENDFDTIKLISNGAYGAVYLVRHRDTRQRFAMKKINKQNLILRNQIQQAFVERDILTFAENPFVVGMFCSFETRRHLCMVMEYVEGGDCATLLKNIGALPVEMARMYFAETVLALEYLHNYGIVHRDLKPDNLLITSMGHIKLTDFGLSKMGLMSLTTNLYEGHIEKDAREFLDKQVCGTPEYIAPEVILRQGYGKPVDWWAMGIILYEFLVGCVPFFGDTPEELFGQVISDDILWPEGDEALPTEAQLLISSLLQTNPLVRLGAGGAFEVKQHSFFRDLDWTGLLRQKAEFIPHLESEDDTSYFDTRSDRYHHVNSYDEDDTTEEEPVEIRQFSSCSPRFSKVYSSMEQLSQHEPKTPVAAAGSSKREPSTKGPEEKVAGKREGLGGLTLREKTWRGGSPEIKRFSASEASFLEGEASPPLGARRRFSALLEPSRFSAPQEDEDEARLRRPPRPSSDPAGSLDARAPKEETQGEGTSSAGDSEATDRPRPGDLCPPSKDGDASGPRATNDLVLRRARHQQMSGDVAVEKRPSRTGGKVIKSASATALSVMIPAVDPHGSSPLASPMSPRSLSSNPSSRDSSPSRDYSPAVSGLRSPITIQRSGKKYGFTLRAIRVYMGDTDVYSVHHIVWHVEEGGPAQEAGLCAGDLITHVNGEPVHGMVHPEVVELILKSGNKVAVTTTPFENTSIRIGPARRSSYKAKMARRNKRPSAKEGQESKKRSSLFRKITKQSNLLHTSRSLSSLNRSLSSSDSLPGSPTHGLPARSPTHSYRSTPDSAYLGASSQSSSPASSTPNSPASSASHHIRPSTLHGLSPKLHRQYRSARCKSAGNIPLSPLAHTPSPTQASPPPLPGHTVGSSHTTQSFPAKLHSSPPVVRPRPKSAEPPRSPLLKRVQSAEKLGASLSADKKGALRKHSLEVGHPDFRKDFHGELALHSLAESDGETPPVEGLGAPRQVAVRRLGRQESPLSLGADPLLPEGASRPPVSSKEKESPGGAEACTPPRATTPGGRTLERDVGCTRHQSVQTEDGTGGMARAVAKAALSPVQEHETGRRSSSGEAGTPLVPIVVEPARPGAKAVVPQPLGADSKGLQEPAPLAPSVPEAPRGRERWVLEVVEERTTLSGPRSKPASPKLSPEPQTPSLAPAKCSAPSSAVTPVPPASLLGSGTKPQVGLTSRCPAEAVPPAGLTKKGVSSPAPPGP

`Cn1cc(-n2cnc3c(NCc4nc5cc(Cl)c(Cl)cc5[nH]4)nc(N4CCOCC4)nc32)cn1`: in test [1], the IC50 was over 10 µM.

In turn, `CC(=O)c1cc(-c2ccccc2OCC2CC2)c2ncccn12` displayed a % of control in test [2] of 89%.

`Cc1cc(F)c(C(=O)Nc2cccc(-c3nncn3C(C)C)n2)cc1-n1cnc(C2CC2)c1` registered a % of control in test [3] of 100%.

As for `O=C(NOC[C@H](O)CO)c1ccc(F)c(F)c1Nc1ccc(I)cc1F`, in test [4], the % of control was 100%.

`CNC(=O)Nc1ccc(-c2nc(N3CC4CCC(C3)O4)c3cnn(C4CCC5(CC4)OCCO5)c3n2)cc1`: the % of control in test [5] was 100%.

Regarding `Cc1cc([C@@H](C)Nc2ccccc2C(=O)O)c2nc(N3CCOCC3)cc(=O)n2c1` [AZD-6482], the % of control in test [6] came out at 100%.

Turning to `Cc1cnc(Nc2ccc(F)cc2Cl)nc1-c1c[nH]c(C(=O)N[C@H](CO)c2cccc(Cl)c2)c1`, the % of inhibition in test [7] was found to be 3%; in test [8], 0%.

In the case of `CCc1cccc(CC)c1NC(=O)c1nn(C)c2c1CCc1cnc(Nc3ccc(C(=O)NC4CCN(C)CC4)cc3OC(F)(F)F)nc1-2`, the half-maximal inhibitory concentration (IC50) in test [9] was over 10 µM.

Turning to `COc1cc(Nc2nc(C)cc(-c3cnn4nc(OC)ccc34)n2)cc(C(F)(F)F)c1`, the % of control in test [10] is 100%.

In the case of `CCC(=O)N1CCN(c2ccc(-n3c(=O)ccc4cnc5ccc(-c6cnc7ccccc7c6)cc5c43)cc2C(F)(F)F)CC1`, the % of control in [11] amounted to 77%; in [12], 76%.

As a reminder, the IC50 is the concentration at which inhibition is half-maximal. A high value points to lower potency.
